From patent US11167015B2, “Arginine and its use as a T cell modulator” (INSTITUTE FOR RESEARCH IN BIOMEDICINE, priority 2016, dated 2021)

Tests used:
human naïve CD4+ T cells [1] = assay: Cytokine analysis (IFN-gamma); assay type: cell-based
Experimental: 10^5 naïve T cells were stimulated with plate bound anti-CD3 (5 μg ml^−1) and anti-CD28 (1 μg ml^−1) in the presence of IL-12 (10 ng/ml, R&D Systems) to polarize cells towards a Th1 phenotype. After 48 h, cells were transferred into U-bottom plates and IL-2 (10 ng/ml, R&D Systems) was added. Three days later, supernatants were collected and interferon-γ was quantified using FlowCytomix assays (eBioscience). Samples were analyzed on a BD LSR Fortessa FACS instrument and quantification was performed with the FlowCytomix Pro 3.0 software. For re-stimulation, cells were cultured for 5 h in the presence of 0.2 μM phorbol 12-myristate 13-acetate (PMA) and 1 μg/ml ionomycin (both from Sigma).

human naïve CD4+ T cells [2] = assay: proteome analysis of T cells activated in L-arginine-supplemented medium; assay type: cell-based
Experimental: Samples were processed as described by (Hornburg et al., 2014). In brief, cell pellets were washed with PBS and lysed in 4% SDS, 10 mM HEPES (pH 8), 10 mM DTT. Cell pellets were heat-treated at 95° C. for 10 min and sonicated at 4° C. for 15 min (level 5, Bioruptor, Diagenode). Alkylation was performed in the dark for 30 min by adding 55 mM iodoacetamide (IAA). Proteins were precipitated overnight with acetone at −20° C. and resuspended the next day in 8 M Urea, 10 mM Hepes (pH 8). A two-step proteolytic digestion was performed. First, samples were digested at room temperature (RT) with LysC (1:50, w/w) for 3 h. Then, they were diluted 1:5 with 50 mM ammoniumbicarbonate (pH 8) and digested with trypsin (1:50, w/w) at RT overnight. The resulting peptide mixtures were acidified and loaded on C18 StageTips (Rappsilber et al., 2007). […]
Peptides were separated on an EASY-nLC 1000 HPLC system (Thermo Fisher Scientific, Odense, Denmark) coupled online to a Q Exactive mass spectrometer via a nanoelectrospray source (Thermo Fisher Scientific) (Michalski et al., 2011). […] Operational parameters were real-time monitored by the SprayQC software (Scheltema and Mann, 2012). […]
MaxQuant software (version 1.3.10.18) was used to analyze MS raw files (Cox and Mann, 2008). […] Nonlinear retention time alignment of all measured samples was performed in MaxQuant. […]

OT-I T cells = assay: Adoptive T cell transfer and survival experiment; assay type: in vivo; conditions: activated 4 days in L-Arg medium, transfer into Cd3e−/− mice
Experimental: CD90.1^+ CD45.1/2^+ OT-I cells were activated with plate-bound antibodies to CD3 and CD28 in control medium. OT-I cells with a different congenic marker (CD90.1^+ CD45.1^+) were activated in L-arginine-supplemented medium. At day 4, equal cell numbers were injected into the tail vein of Cd3e^−/− host mice. To study the expansion of OT-I effector cells, host mice were sacrificed after 1, 3, 6, and 10 days post transfer and CD90.1^+ OT-I T cells from lymphoid organs (spleen and lymph nodes) were enriched with anti-CD90.1 micro beads (Miltenyi Biotec), stained and analysed by FACS. The following monoclonal antibodies were used α-CD8α (53-6.7), α-CD44 (1M7), α-CD62L (MEL-14), α-CD90.1 (OX-7), α-CD90.2 (30-H12), α-CD45.1 (A20), α-CD45.2 (104).

natural killer cells = conditions: oral administration, healthy volunteers; cited from earlier work

**Q.** Which results are given for `N=C(N)NCCC[C@H](N)C(=O)O` [L-arginine]?
**A.** IFN-gamma secretion (human naïve CD4+ T cells [1]; L-arginine-supplemented medium, 10 ng/ml IL-12, supernatants after 5 days): much less; IFN-gamma secretion after re-activation (human naïve CD4+ T cells [1]; re-activation for 5 h with PMA/Ionomycin): comparable amounts; Sirtuin-1 copy numbers (human naïve CD4+ T cells [2]; L-Arg-medium vs normal medium): up-regulates; number of proteins with significantly different expression (out of 7,243) (human naïve CD4+ T cells [2]; L-arginine-supplemented medium): 202; survival capacity of OT-I T cells in vivo (OT-I T cells): higher survival capacity; numbers and activity of natural killer cells (natural killer cells): enhance the numbers and activity of natural killer cells
